Laboratory results reported in PubChem BioAssay AID2060333 (Molecular Pharmacology Branch, DTP, NCI, 2025).
Where “and” joins values, the source holds several entries; their conditions need not be identical. Identical values can stand only once. Values belong to the compound of their own block, whether it stands above or below them.

Tested on: 845751-090-R-J2-PDC tumor spheroid viability
Experiment: Anticancer human tumor 845751-090-R-J2-PDC patient-derived head and neck squamous carcinoma cell line growth inhibition [IpAb]
Details: spheroids with HUVEC and MSC; for viability, T/C: stronger effect = lower value
Procedure, shortened: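 Multi-cell spheroids of 60% tumour cells, 25% HUVEC and 15% MSC in ultra-low-attachment U-bottom wells, treated with agents combined with ipatasertib or abemaciclib. Half-log ranges top out near clinical Cmax, or 10 microM when Cmax is unknown.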

[1] = curve of first compound, second compound 0.01 µM
[2] = curve of first compound, second compound 0.0316 µM
[3] = curve of first compound, second compound 0.1 µM
[4] = curve of first compound, second compound 0.316 µM
[5] = curve of first compound, second compound 1 µM
[6] = second compound 0.01 µM, first compound 0.0316 µM
[7] = second compound 0.01 µM, first compound 0.1 µM
[8] = second compound 0.01 µM, first compound 0.316 µM
[9] = second compound 0.01 µM, first compound 1 µM
[10] = second compound 0.01 µM, first compound 3.16 µM
[11] = second compound 0.01 µM, first compound 10 µM
[12] = second compound 0.0316 µM, first compound 0.0316 µM
[13] = second compound 0.0316 µM, first compound 0.1 µM
[14] = second compound 0.0316 µM, first compound 0.316 µM
[15] = second compound 0.0316 µM, first compound 1 µM
[16] = second compound 0.0316 µM, first compound 3.16 µM
[17] = second compound 0.0316 µM, first compound 10 µM
[18] = second compound 0.1 µM, first compound 0.0316 µM
[19] = second compound 0.1 µM, first compound 0.1 µM
[20] = second compound 0.1 µM, first compound 0.316 µM
[21] = second compound 0.1 µM, first compound 1 µM
[22] = second compound 0.1 µM, first compound 3.16 µM
[23] = second compound 0.1 µM, first compound 10 µM
[24] = second compound 0.316 µM, first compound 0.0316 µM
[25] = second compound 0.316 µM, first compound 0.1 µM
[26] = second compound 0.316 µM, first compound 0.316 µM
[27] = second compound 0.316 µM, first compound 1 µM
[28] = second compound 0.316 µM, first compound 3.16 µM
[29] = second compound 0.316 µM, first compound 10 µM
[30] = second compound 1 µM, first compound 0.0316 µM
[31] = second compound 1 µM, first compound 0.1 µM
[32] = second compound 1 µM, first compound 0.316 µM
[33] = second compound 1 µM, first compound 1 µM
[34] = second compound 1 µM, first compound 3.16 µM
[35] = second compound 1 µM, first compound 10 µM
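Note: spheroids exposed to compounds for 7 days before readout.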
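Throughout, for viability, T/C: CTG3D luminescence normalised so that 100% = DMSO vehicle control.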

Structure (SMILES): C=CC(=O)N1CCN(c2nc(=O)n(-c3c(C)ccnc3C(C)C)c3nc(-c4c(O)cccc4F)c(F)cc23)C(C)C1 (configuration not stated) + CCN1CCN(Cc2ccc(Nc3ncc(F)c(-c4cc(F)c5nc(C)n(C(C)C)c5c4)n3)nc2)CC1
IC50 [1]: 5.85 µM | IC50 [2]: 2.25 µM | IC50 [3]: 1.69 µM | IC50 [4]: 1.87 µM | IC50 [5]: 2.25 µM | viability, T/C [6]: 95.2% | viability, T/C [7]: 96.3% | viability, T/C [8]: 102% | viability, T/C [9]: 82.3% | viability, T/C [10]: 53.7% | viability, T/C [11]: 46.9% | viability, T/C [12]: 64% | viability, T/C [13]: 84.3% | viability, T/C [14]: 70.9% | viability, T/C [15]: 66% | viability, T/C [16]: 43.3% | viability, T/C [17]: 31.7% | viability, T/C [18]: 67.2% | viability, T/C [19]: 115% | viability, T/C [20]: 74.6% | viability, T/C [21]: 56.1% | viability, T/C [22]: 46% | viability, T/C [23]: 27.2% | viability, T/C [24]: 61.5% | viability, T/C [25]: 67.9% | viability, T/C [26]: 72.5% | viability, T/C [27]: 55.7% | viability, T/C [28]: 43% | viability, T/C [29]: 16.9% | viability, T/C [30]: 62.6% | viability, T/C [31]: 62.4% | viability, T/C [32]: 72.2% | viability, T/C [33]: 59.9% | viability, T/C [34]: 45.4% | viability, T/C [35]: 28.4%

IC50 (curve of compound): > 10 µM
Structure (SMILES): C=CCn1c(=O)c2cnc(Nc3ccc(N4CCN(C)CC4)cc3)nc2n1-c1cccc(C(C)(C)O)n1
viability, T/C (compound 0.0316 µM): 98.5% and 92.5% | viability, T/C (compound 0.1 µM): 75.5% and 64.4% | viability, T/C (compound 0.316 µM): 70.1% and 55.9% | viability, T/C (compound 1 µM): 68.8% and 58.6% | viability, T/C (compound 3.16 µM): 68.3% and 69.5% | viability, T/C (compound 10 µM): 49.5% and 53.6%

Structure (SMILES): CC(C)NCC(C(=O)N1CCN(c2ncnc3c2C(C)CC3O)CC1)c1ccc(Cl)cc1 (configuration not stated)
viability, T/C (compound 1 µM): 30.2% [middle of 13 runs] | viability, T/C (compound 3.16 µM): 23.3% [middle of 13 runs] | viability, T/C (compound 10 µM): 14.6% [middle of 13 runs]

IC50 (curve of compound): > 0.3 µM
Structure (SMILES): CC(=O)c1c(C)c2cnc(Nc3ccc(N4CCNCC4)cn3)nc2n(C2CCCC2)c1=O
viability, T/C (compound 0.000949 µM): 86.5% and 84.4% | viability, T/C (compound 0.003 µM): 81.2% and 104% | viability, T/C (compound 0.00949 µM): 109% and 90.3% | viability, T/C (compound 0.03 µM): 133% and 91.8% | viability, T/C (compound 0.0949 µM): 112% and 101% | viability, T/C (compound 0.3 µM): 165% and 106%

Structure (SMILES): CC1(C)CCC(CN2CCN(c3ccc(C(=O)NS(=O)(=O)c4ccc(NCC5CCOCC5)c([N+](=O)[O-])c4)c(Oc4cnc5[nH]ccc5c4)c3)CC2)=C(c2ccc(Cl)cc2)C1 + CC(C)NCC(C(=O)N1CCN(c2ncnc3c2C(C)CC3O)CC1)c1ccc(Cl)cc1
IC50 [3]: 5.77 µM | IC50 [4]: < 0.0316 µM | IC50 [5]: < 0.0316 µM | IC50 (curve of first compound, second compound 3.16 µM): < 0.0316 µM | IC50 (curve of first compound, second compound 10 µM): < 0.0316 µM | viability, T/C [18]: 65.2% | viability, T/C [19]: 83% | viability, T/C [20]: 81.9% | viability, T/C [21]: 67% | viability, T/C [22]: 111% | viability, T/C [23]: 20.9% | viability, T/C [24]: 30.5% | viability, T/C [25]: 38.3% | viability, T/C [26]: 53.5% | viability, T/C [27]: 44% | viability, T/C [28]: 47% | viability, T/C [29]: 14.4% | viability, T/C [30]: 28.6% | viability, T/C [31]: 27.6% | viability, T/C [32]: 54.8% | viability, T/C [33]: 33.1% | viability, T/C [34]: 33.6% | viability, T/C [35]: 7.48% | viability, T/C (second compound 3.16 µM, first compound 0.0316 µM): 26.7% | viability, T/C (second compound 3.16 µM, first compound 0.1 µM): 27.3% | viability, T/C (second compound 3.16 µM, first compound 0.316 µM): 31.5% | viability, T/C (second compound 3.16 µM, first compound 1 µM): 29.5% | viability, T/C (second compound 3.16 µM, first compound 3.16 µM): 42.4% | viability, T/C (second compound 3.16 µM, first compound 10 µM): 5.79% | viability, T/C (second compound 10 µM, first compound 0.0316 µM): 13.1% | viability, T/C (second compound 10 µM, first compound 0.1 µM): 14.6% | viability, T/C (second compound 10 µM, first compound 0.316 µM): 38.2% | viability, T/C (second compound 10 µM, first compound 1 µM): 15.5% | viability, T/C (second compound 10 µM, first compound 3.16 µM): 22% | viability, T/C (second compound 10 µM, first compound 10 µM): 3.52%

Structure (SMILES): CC1(C)CCC(CN2CCN(c3ccc(C(=O)NS(=O)(=O)c4ccc(NCC5CCOCC5)c([N+](=O)[O-])c4)c(Oc4cnc5[nH]ccc5c4)c3)CC2)=C(c2ccc(Cl)cc2)C1 + CCN1CCN(Cc2ccc(Nc3ncc(F)c(-c4cc(F)c5nc(C)n(C(C)C)c5c4)n3)nc2)CC1
IC50 [1]: 7.51 µM | IC50 [2]: 7.03 µM | IC50 [3]: 6.37 µM | IC50 [4]: 6.41 µM | IC50 [5]: 6.75 µM | viability, T/C [6]: 104% | viability, T/C [7]: 119% | viability, T/C [8]: 103% | viability, T/C [9]: 91.3% | viability, T/C [10]: 138% | viability, T/C [11]: 29.8% | viability, T/C [12]: 136% | viability, T/C [13]: 90.5% | viability, T/C [14]: 80.8% | viability, T/C [15]: 93.6% | viability, T/C [16]: 137% | viability, T/C [17]: 24.4% | viability, T/C [18]: 75% | viability, T/C [19]: 72.2% | viability, T/C [20]: 94.6% | viability, T/C [21]: 104% | viability, T/C [22]: 117% | viability, T/C [23]: 22.7% | viability, T/C [24]: 74.6% | viability, T/C [25]: 108% | viability, T/C [26]: 92.3% | viability, T/C [27]: 85.3% | viability, T/C [28]: 115% | viability, T/C [29]: 21.6% | viability, T/C [30]: 106% | viability, T/C [31]: 107% | viability, T/C [32]: 102% | viability, T/C [33]: 115% | viability, T/C [34]: 123% | viability, T/C [35]: 18.5%
